Laboratory results taken from patent US8119697B2 (Yissum Research Development Company of the Hebrew …, priority 2002, dated 2012).

Assays:
[1] = test system: conditioned taste avoidance; assay: Consumption test of lithium-paired saccharin solution (conditioned taste avoidance); type: in vivo; details: pretreatment 5 mg/kg prior to conditioning; 6 hr consumption test on day following final TR test, non-deprived rats
Protocol: (§1) [drawing 3] • In Experiment 1 were used 29 male rats and in Experiment 2 were used 24 male Sprague-Dawley rats (Charles River Labs, St. Constant, Quebec), which weighed 290-350 gm on the conditioning day. They were individually housed in stainless steel hanging cages in a colony room kept at 21° C. on a 12:12 hr light:dark schedule with the lights on at 07.00 h. Throughout the experiment, the rats were maintained on ad-lib Purina Rat Chow and water. The procedures were approved by the Wilfrid Laurier University Animal Care Committee according to the guidelines of the Canadian Council on Animal Care. • b. The rats were surgically implanted with intra-oral cannulae as described by Parker, L. A. Learn Motiv., 13, 281-303 (1982). The surgical anesthesia preparation included administration of 0.4 mg/kg atropine solution i.p. 15 min prior to ketamine (75 mg/kg, i.p.) combined with xylazine (10 mg/kg, i.p.) which was dissolved in sterile water and administered at a volume of 1 ml/kg. […] On this trial, the water bottles were replaced with tubes containing the saccharin solution and the amounts consumed over a 6 hr period of drinking were recorded. • i. Taste reactivity scoring: A rater blind to the experimental conditions scored the videotapes on two occasions in slow motion (⅕ speed) using the Observer (Noldus, NL) event-recording program on a PC computer. […]

[2] = test system: lithium-induced nausea (conditioned rejection reactions); assay: Taste Reactivity (TR) test: lithium-induced conditioned rejection reactions to saccharin solution; type: in vivo, rats; details: for establishment of conditioned rejection reactions: pretreatment 5 mg/kg ip 30 min prior to conditioning trial (saccharin-lithium pairing), versus vehicle pretreatment
Protocol: as §1, with “ml/kg. On each of three subsequent days during recovery from surgery, the cannulae were flushed with a chlorhexidine rinse (Novlosan; 0.1% chlorhexidine) to prevent infection. • c. […] The rats were randomly assigned to independent groups on the basis of the pretreatment drug and the conditioning drug. In Experiment 1, the groups were as follows: CBD-lithium (n=8), CBD-saline (n=6), Vehicle-lithium (n=8), Vehicle-saline (n=7). In Experiment 2, the groups were as follows: CBD-DMH-lithium (n=6), CBD-DMH-saline (n=6), Vehicle-lithium (n=6), Vehicle-saline (n=6). […] The order of the test trials was counterbalanced among the rats in each group. • d.” for “ml/kg.”

CB1 receptor = CB1 receptor (Homo sapiens, UniProt P21554); details: cited from earlier work
[3] = test system: lithium-induced nausea (conditioned rejection reactions); details: previously reported, rats; cited from earlier work
[4] = test system: conditioned taste avoidance; details: previously reported, as pretreatment agent; cited from earlier work

CB1 receptor, sequence (P21554 whole entry): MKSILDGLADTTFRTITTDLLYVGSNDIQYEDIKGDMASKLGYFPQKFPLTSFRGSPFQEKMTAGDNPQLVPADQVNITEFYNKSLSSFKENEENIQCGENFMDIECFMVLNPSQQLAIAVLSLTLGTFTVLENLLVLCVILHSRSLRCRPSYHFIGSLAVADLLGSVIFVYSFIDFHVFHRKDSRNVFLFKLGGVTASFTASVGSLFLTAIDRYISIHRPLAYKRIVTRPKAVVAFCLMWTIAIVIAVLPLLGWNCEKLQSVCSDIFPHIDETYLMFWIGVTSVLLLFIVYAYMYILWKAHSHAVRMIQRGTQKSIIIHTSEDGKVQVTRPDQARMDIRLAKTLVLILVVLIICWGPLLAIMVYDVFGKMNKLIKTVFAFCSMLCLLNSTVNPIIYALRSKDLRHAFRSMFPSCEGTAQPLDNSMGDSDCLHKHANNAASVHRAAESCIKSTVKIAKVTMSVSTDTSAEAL

Structure (SMILES) | strength of avoidance response (ml saccharin solution consumed) [1] | expression of previously established conditioned rejection reactions ([2]; 5 mg/kg ip 30 min prior to TR test trial, lithium-conditioned male Sprague-Dawley rats, versus vehicle test trial) | establishment of conditioned rejection reactions [2] | affinity for the CB1 receptor (CB1 receptor) | establishment and expression of conditioned rejection reactions [3] | establishment of conditioned taste avoidance in a consumption test [4]
C=C(C)[C@@H]1CCC(C)=C[C@H]1c1c(O)cc(CCCCC)cc1O [CBD, cannabidiol] | did not modulate the strength of the avoidance response | attenuated the expression of previously established conditioned rejection reactions | attenuated the establishment of conditioned rejection reactions | – | – | –
C=C(C)C1CCC(C)=CC1c1c(O)cc(C(C)(C)CCCCCC)cc1O (stereo not drawn) [CBD-DMH, cannabidiol-dimethyl heptyl] | did not modulate the strength of the avoidance response | – | interfered with the establishment of conditioned rejection reactions | relatively weak affinity | – | –
CCCCCc1cc(O)c2c(c1)OC(C)(C)[C@@H]1CCC(C)=C[C@@H]21 [THC] | – | – | – | – | interfered with the establishment and the expression of conditioned rejection reactions | –
Cc1nccn1CC1CCc2c(c3ccccc3n2C)C1=O (stereo not drawn) [ondansetron] | – | – | – | – | interfered with the establishment and the expression of conditioned rejection reactions | did not interfere with the establishment of conditioned taste avoidance
